Measured values as given in patent US20240383886A1, “Protein Tyrosine Phosphatase Degraders and Methods of Use Thereof” (CALICO LIFE SCIENCES LLC, priority 2019, published 2024).

What was measured:
PTPN2 [1] = molecular target: T1, PTPN2 (Homo sapiens, UniProt P17706); assay: HiBiT-Degradation 293T.109 PTPN2 (Nano-Glo HiBiT Lytic Assay); type: cell-based; details: 293T.109 (HiBiT-PTPN2) cells, 24.0 hours
T1 construct: expressed in transfected cells; host or cells: 293T (293T.109 HiBiT-PTPN2 line; parental 293T WT from ATCC)
T1 sequence (P17706 1-415): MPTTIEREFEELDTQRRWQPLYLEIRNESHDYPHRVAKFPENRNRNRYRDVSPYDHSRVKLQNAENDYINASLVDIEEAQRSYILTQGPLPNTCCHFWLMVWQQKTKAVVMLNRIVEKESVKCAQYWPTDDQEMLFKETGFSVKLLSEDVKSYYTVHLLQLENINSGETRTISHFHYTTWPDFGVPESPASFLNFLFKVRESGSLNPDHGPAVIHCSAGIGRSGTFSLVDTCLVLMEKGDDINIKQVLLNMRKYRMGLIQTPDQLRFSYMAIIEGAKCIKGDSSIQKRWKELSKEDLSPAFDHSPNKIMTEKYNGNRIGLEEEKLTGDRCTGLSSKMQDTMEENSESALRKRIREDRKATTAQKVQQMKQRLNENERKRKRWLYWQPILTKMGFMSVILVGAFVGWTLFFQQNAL
Summary of the method: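 Luminescence from a lytic HiBiT read gave PTPN2 levels after 24 h compound exposure at 37° C. Compounds were tested at 11 half-log points from a 10 μM top concentration, in duplicate. The cells were 293T engineered with an N-terminal HiBiT–PTPN2 fusion, plated at 5000 per well, with untreated wells as negative control and no-reagent wells as positive control.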

PTPN2 [2] = assay: HiBiT-Degradation B16F10.4 PTPN2; type: cell-based; details: B16F10.4 cells, 24.0 hours

DC50 (PTPN2 [1])	DC50 (PTPN2 [2])	Compound
10 to 50 nM	50 to 200 nM	Cn1c(=O)n(C2CCC(=O)NC2=O)c2ccc(C3CCN(CC(=O)N4CCC(c5ccc6cc(O)c(N7CC(=O)NS7(=O)=O)c(F)c6c5)CC4)CC3)cc21 (centres unmarked) [Example 120, 3-[5-[1-[2-[4-[8-fluoro-6-hydroxy-7-(1,1,4-trioxo-1,2,5-thiadiazolidin-2-yl)-2-naphthyl]-1-piperidyl]-2-oxo-ethyl]-4-piperidyl]-3-methyl-2-oxo-benzimidazol-1-yl]piperidine-2,6-dione]
10 to 50 nM	50 to 200 nM	Cn1c(=O)n(C2CCC(=O)NC2=O)c2ccc(C3CCN(CCN4CC=C(c5ccc6cc(O)c(N7CC(=O)NS7(=O)=O)c(F)c6c5)CC4)CC3)cc21 (centres unmarked) [Example 121, 3-[5-[1-[2-[4-[8-fluoro-6-hydroxy-7-(1,1,4-trioxo-1,2,5-thiadiazolidin-2-yl)-2-naphthyl]-3,6-dihydro-2H-pyridin-1-yl]ethyl]-4-piperidyl]-3-methyl-2-oxo-benzimidazol-1-yl]piperidine-2,6-dione]
10 to 50 nM	200 to 1000 nM	Cn1c(=O)n(C2CCC(=O)NC2=O)c2ccc(C3CCN(CCn4cc(-c5ccc6c(F)c(N7CC(=O)NS7(=O)=O)c(O)cc6c5)cn4)CC3)cc21 (centres unmarked) [Example 122, 3-[5-[1-[2-[4-[5-fluoro-7-hydroxy-6-(1,1,4-trioxo-1,2,5-thiadiazolidin-2-yl)-2-naphthyl]pyrazol-1-yl]ethyl]-4-piperidyl]-3-methyl-2-oxo-benzimidazol-1-yl]piperidine-2,6-dione]
10 to 50 nM	50 to 200 nM	Cn1c(=O)n(C2CCC(=O)NC2=O)c2ccc(C3CCN(CCN4CCC(c5ccc6cc(O)c(N7CC(=O)NS7(=O)=O)c(F)c6c5)CC4)CC3)cc21 (centres unmarked) [Example 123, 3-[5-[1-[2-[4-[8-fluoro-6-hydroxy-7-(1,1,4-trioxo-1,2,5-thiadiazolidin-2-yl)-2-naphthyl]-1-piperidyl]ethyl]-4-piperidyl]-3-methyl-2-oxo-benzimidazol-1-yl]piperidine-2,6-dione]
200 to 1000 nM	200 to 1000 nM	Cn1c(=O)n(C2CCC(=O)NC2=O)c2ccc(N3CCC(CC(=O)N4CCC(c5ccc6cc(O)c(N7CC(=O)NS7(=O)=O)c(F)c6c5)CC4)CC3)cc21 (centres unmarked) [Example 124, 3-[5-[4-[2-[4-[8-fluoro-6-hydroxy-7-(1,1,4-trioxo-1,2,5-thiadiazolidin-2-yl)-2-naphthyl]-1-piperidyl]-2-oxo-ethyl]-1-piperidyl]-3-methyl-2-oxo-benzimidazol-1-yl]piperidine-2,6-dione]
50 to 200 nM	200 to 1000 nM	Cn1c(=O)n(C2CCC(=O)NC2=O)c2ccc(C3CCN(Cc4cnn(-c5ccc6cc(O)c(N7CC(=O)NS7(=O)=O)c(F)c6c5)c4)CC3)cc21 (centres unmarked) [Example 125, 3-[5-[1-[[1-[8-fluoro-6-hydroxy-7-(1,1,4-trioxo-1,2,5-thiadiazolidin-2-yl)-2-naphthyl]pyrazol-4-yl]methyl]-4-piperidyl]-3-methyl-2-oxo-benzimidazol-1-yl]piperidine-2,6-dione]
200 to 1000 nM	200 to 1000 nM	Cn1c(=O)n(C2CCC(=O)NC2=O)c2ccc(Nc3ccc(C(=O)NCCOc4ccc5cc(O)c(N6CC(=O)NS6(=O)=O)c(F)c5c4)cc3)cc21 (centres unmarked) [Example 126, 4-[[1-(2,6-dioxo-3-piperidyl)-3-methyl-2-oxo-benzimidazol-5-yl]amino]-N-[2-[[8-fluoro-6-hydroxy-7-(1,1,4-trioxo-1,2,5-thiadiazolidin-2-yl)-2-naphthyl]oxy]ethyl]benzamide]
50 to 200 nM	200 to 1000 nM	Cn1c(=O)n(C2CCC(=O)NC2=O)c2ccc(N3CCC(CC(=O)N4CC=C(c5ccc6cc(O)c(N7CC(=O)NS7(=O)=O)c(F)c6c5)CC4)CC3)cc21 (centres unmarked) [Example 127, 3-[5-[4-[2-[4-[8-fluoro-6-hydroxy-7-(1,1,4-trioxo-1,2,5-thiadiazolidin-2-yl)-2-naphthyl]-3,6-dihydro-2H-pyridin-1-yl]-2-oxo-ethyl]-1-piperidyl]-3-methyl-2-oxo-benzimidazol-1-yl]piperidine-2,6-dione]
50 to 200 nM	200 to 1000 nM	Cn1c(=O)n(C2CCC(=O)NC2=O)c2ccc(C3CCN(CCCCOc4ccc5cc(O)c(N6CC(=O)NS6(=O)=O)c(F)c5c4)CC3)cc21 (centres unmarked) [Example 128, 3-[5-[1-[4-[[8-fluoro-6-hydroxy-7-(1,1,4-trioxo-1,2,5-thiadiazolidin-2-yl)-2-naphthyl]oxy]butyl]-4-piperidyl]-3-methyl-2-oxo-benzimidazol-1-yl]piperidine-2,6-dione]
50 to 200 nM	50 to 200 nM	Cn1c(=O)n(C2CCC(=O)NC2=O)c2ccc(C3CCN(CC(=O)Nc4ccc5c(F)c(N6CC(=O)NS6(=O)=O)c(O)cc5c4)CC3(F)F)cc21 (centres unmarked) [Example 129, 2-[4-[1-(2,6-dioxo-3-piperidyl)-3-methyl-2-oxo-benzimidazol-5-yl]-3,3-difluoro-1-piperidyl]-N-[5-fluoro-7-hydroxy-6-(1,1,4-trioxo-1,2,5-thiadiazolidin-2-yl)-2-naphthyl]acetamide]
50 to 200 nM	50 to 200 nM	Cn1c(=O)n(C2CCC(=O)NC2=O)c2ccc(C3CCN(CC(=O)N4CCC[C@@H](COc5ccc6cc(O)c(N7CC(=O)NS7(=O)=O)c(F)c6c5)C4)CC3)cc21 (stereo partly drawn) [Example 130, 3-[5-[1-[2-[(3R)-3-[[8-fluoro-6-hydroxy-7-(1,1,4-trioxo-1,2,5-thiadiazolidin-2-yl)-2-naphthyl]oxymethyl]-1-piperidyl]-2-oxo-ethyl]-4-piperidyl]-3-methyl-2-oxo-benzimidazol-1-yl]piperidine-2,6-dione]
10 to 50 nM	50 to 200 nM	Cn1c(=O)n(C2CCC(=O)NC2=O)c2ccc(C3CCN(CC(=O)N4CC[C@@H](COc5ccc6cc(O)c(N7CC(=O)NS7(=O)=O)c(F)c6c5)C4)CC3)cc21 (stereo partly drawn) [Example 131, 3-[5-[1-[2-[(3R)-3-[[8-fluoro-6-hydroxy-7-(1,1,4-trioxo-1,2,5-thiadiazolidin-2-yl)-2-naphthyl]oxymethyl]pyrrolidin-1-yl]-2-oxo-ethyl]-4-piperidyl]-3-methyl-2-oxo-benzimidazol-1-yl]piperidine-2,6-dione]
50 to 200 nM	200 to 1000 nM	Cn1c(=O)n(C2CCC(=O)NC2=O)c2ccc(Nc3ccc(NC(=O)c4ccc5c(F)c(N6CC(=O)NS6(=O)=O)c(O)cc5c4)cc3)cc21 (centres unmarked) [Example 132]
10 to 50 nM	50 to 200 nM	Cn1c(=O)n(C2CCC(=O)NC2=O)c2ccc(C3CCN(CC(=O)N4CC[C@H](COc5ccc6cc(O)c(N7CC(=O)NS7(=O)=O)c(F)c6c5)C4)CC3)cc21 (stereo partly drawn) [Example 133, 3-[5-[1-[2-[(3S)-3-[[8-fluoro-6-hydroxy-7-(1,1,4-trioxo-1,2,5-thiadiazolidin-2-yl)-2-naphthyl]oxymethyl]pyrrolidin-1-yl]-2-oxo-ethyl]-4-piperidyl]-3-methyl-2-oxo-benzimidazol-1-yl]piperidine-2,6-dione]
50 to 200 nM	200 to 1000 nM	Cn1c(=O)n(C2CCC(=O)NC2=O)c2ccc(C3CCN(CC(=O)N4CCC[C@H](COc5ccc6cc(O)c(N7CC(=O)NS7(=O)=O)c(F)c6c5)C4)CC3)cc21 (stereo partly drawn) [Example 134, 3-[5-[1-[2-[(3S)-3-[[8-fluoro-6-hydroxy-7-(1,1,4-trioxo-1,2,5-thiadiazolidin-2-yl)-2-naphthyl]oxymethyl]-1-piperidyl]-2-oxo-ethyl]-4-piperidyl]-3-methyl-2-oxo-benzimidazol-1-yl]piperidine-2,6-dione]
50 to 200 nM	50 to 200 nM	Cn1c(=O)n(C2CCC(=O)NC2=O)c2ccc(C3CCN(CCn4cc(-c5ccc6cc(O)c(N7CC(=O)NS7(=O)=O)c(F)c6c5)cn4)CC3)cc21 (centres unmarked) [Example 135, 3-[5-[1-[2-[4-[8-fluoro-6-hydroxy-7-(1,1,4-trioxo-1,2,5-thiadiazolidin-2-yl)-2-naphthyl]pyrazol-1-yl]ethyl]-4-piperidyl]-3-methyl-2-oxo-benzimidazol-1-yl]piperidine-2,6-dione]
50 to 200 nM	50 to 200 nM	Cn1c(=O)n(C2CCC(=O)NC2=O)c2ccc(C3CCN(CCN4CCC[C@@H](COc5ccc6cc(O)c(N7CC(=O)NS7(=O)=O)c(F)c6c5)C4)CC3)cc21 (stereo partly drawn) [Example 137, 3-[5-[1-[2-[(3R)-3-[[8-fluoro-6-hydroxy-7-(1,1,4-trioxo-1,2,5-thiadiazolidin-2-yl)-2-naphthyl]oxymethyl]-1-piperidyl]ethyl]-4-piperidyl]-3-methyl-2-oxo-benzimidazol-1-yl]piperidine-2,6-dione]
50 to 200 nM	50 to 200 nM	Cn1c(=O)n(C2CCC(=O)NC2=O)c2ccc(C3CCN(C(=O)CN4CC[C@H](COc5ccc6cc(O)c(N7CC(=O)NS7(=O)=O)c(F)c6c5)C4)CC3)cc21 (stereo partly drawn) [Example 138, 3-[5-[1-[2-[(3S)-3-[[8-fluoro-6-hydroxy-7-(1,1,4-trioxo-1,2,5-thiadiazolidin-2-yl)-2-naphthyl]oxymethyl]pyrrolidin-1-yl]acetyl]-4-piperidyl]-3-methyl-2-oxo-benzimidazol-1-yl]piperidine-2,6-dione]
50 to 200 nM	50 to 200 nM	Cn1c(=O)n(C2CCC(=O)NC2=O)c2ccc(-c3ccc(NC(=O)NCCOc4ccc5cc(O)c(N6CC(=O)NS6(=O)=O)c(F)c5c4)cc3)cc21 (centres unmarked) [Example 139, 1-[4-[1-(2,6-dioxo-3-piperidyl)-3-methyl-2-oxo-benzimidazol-5-yl]phenyl]-3-[2-[[8-fluoro-6-hydroxy-7-(1,1,4-trioxo-1,2,5-thiadiazolidin-2-yl)-2-naphthyl]oxy]ethyl]urea]
